Source: PubChem BioAssay AID651703 (Broad Institute, 2012)

target: Transforming acidic coiled-coil-containing protein 3 (Homo sapiens) (UniProt Q9Y6A5); assay: ARNT/TACC3 interaction disruptors, potency, confirmation, biochemical, AlphaScreen, cherry-picked samples (AID 651703); conditions: AlphaScreen His-ARNT PAS-B / GST-TACC3 binding, luminescence;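 further: TACC3 partner is the GST-tagged E629A mutant dimer; hits lower the signal meaning they disrupt ARNT binding to TACC3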

**Q.** `CN(C)c1nc(-c2ccccn2)nnc1-c1ccccc1` was tested. Which AC50 did it give?
**A.** < 0.5 µM

**Q.** With `CNc1nc(C(=O)O)nc(N2CCOCC2)n1` as the compound, how does the AC50 read?
**A.** 11.6 µM

**Q.** With `COc1ccc(CCNC(=O)CSc2nnc3ccc(-c4ccccn4)nn23)cc1` as the compound, how does the AC50 read?
**A.** 33.5 µM

**Q.** `O=C(COc1ccc(Cl)cc1)Nc1nnc(-c2ccco2)o1` was tested. Which AC50 did it give?
**A.** 19.6 µM

**Q.** Which AC50 does the source give for `Oc1cccc(/C=N/Nc2ccc(Cl)nn2)c1O` here?
**A.** 1.5 µM

**Q.** How did the AC50 turn out when `O=C(Nc1nc(-c2ccccn2)cs1)c1cc(S(=O)(=O)N2CCOCC2)ccc1F` was run?
**A.** 4.43 µM

**Q.** With `O=c1[nH]c(N2CCOCC2)cc2ccccc12` as the compound, how does the AC50 read?
**A.** 63.8 µM

**Q.** `Cc1ccccc1CNc1nc(-c2ccccn2)nnc1-c1ccccc1` was tested. Which AC50 did it give?
**A.** 0.647 µM

**Q.** `COc1cccc(CNc2nc(-c3ccccn3)nnc2-c2ccccc2)c1` was tested. Which AC50 did it give?
**A.** 0.794 µM

**Q.** For `CCOC(=O)c1cnc(-n2[nH]c(C)cc2=O)[nH]c1=O`, which AC50 is on record?
**A.** 0.754 µM

**Q.** With `COc1cccc(/C=N/Nc2nc3ccccc3[nH]2)c1O` as the compound, how does the AC50 read?
**A.** 26.6 µM

**Q.** Which AC50 does the source give for `O=C(CC(NCc1ccccn1)C(=O)O)Nc1ccccc1Cl` (configuration not stated) here?
**A.** 0.638 µM

**Q.** `O=C(Nc1ccccc1C(F)(F)F)c1ncn[nH]1` was tested. Which AC50 did it give?
**A.** 13.1 µM

**Q.** `NNc1nnc(-c2ccccc2)c(-c2ccccc2)n1` was tested. Which AC50 did it give?
**A.** 8.66 µM

**Q.** With `COC(=O)Cc1cc(=O)n(-c2nc3ccccc3[nH]2)[nH]1` as the compound, how does the AC50 read?
**A.** 2.68 µM

**Q.** How did the AC50 turn out when `C/C=C/c1ccc([C@@H]2[C@H](CO)N(Cc3ccccn3)[C@H]2CNC(C)=O)cc1` was run?
**A.** 47.8 µM

**Q.** `O=C(CSc1ccc(-c2ccccn2)nn1)c1ccc([N+](=O)[O-])cc1` was tested. Which AC50 did it give?
**A.** 4.73 µM

**Q.** With `Oc1c(CN2CCCCC2)cc(Br)c2cccnc12` as the compound, how does the AC50 read?
**A.** 0.995 µM

**Q.** With `c1ccc(C2=Nn3c(nnc3-c3ccccn3)SC2)cc1` as the compound, how does the AC50 read?
**A.** 64.9 µM

**Q.** `CCOc1cc2c(C#N)c(N3CCOCC3)nc(N)c2c(N)n1` was tested. Which AC50 did it give?
**A.** 30.4 µM

**Q.** With `COc1ccc(C2C(C#N)=C(N)Oc3c2ccc2cccnc32)cc1OC` (configuration not stated) as the compound, how does the AC50 read?
**A.** 58.6 µM

**Q.** For `COc1ccc(C2C(C#N)=C(N)Oc3n[nH]c(-c4ccccn4)c32)c(OC)c1OC` (configuration not stated), which AC50 is on record?
**A.** 53.3 µM

**Q.** For `O=C(Cn1cncn1)N/N=C/c1cc([N+](=O)[O-])ccc1O`, which AC50 is on record?
**A.** 4.04 µM

**Q.** Which AC50 does the source give for `c1ccc(-c2nnc(-c3ccccn3)nc2N2CCC(c3ccccc3)C2)cc1` (configuration not stated) here?
**A.** 4.75 µM

**Q.** `OCCN1CCN(C(=S)c2ccc(Cl)c(Cl)c2)CC1` was tested. Which AC50 did it give?
**A.** 33.2 µM

**Q.** Which AC50 does the source give for `CC(=O)OC[C@H]1O[C@@H](Sc2cccc3cccnc23)[C@H](OC(C)=O)[C@@H](OC(C)=O)[C@H]1OC(C)=O` here?
**A.** 11.5 µM

**Q.** `CCOc1ccc(NC(=O)CC(NCc2ccccn2)C(=O)O)cc1` (configuration not stated) was tested. Which AC50 did it give?
**A.** < 0.5 µM

**Q.** With `c1ccc(-c2nnc(-c3ccccn3)nc2NCC2CCOCC2)cc1` as the compound, how does the AC50 read?
**A.** < 0.5 µM

**Q.** For `O=S(=O)(N[C@H]1CC[C@@H](CCn2cc(-c3ccccn3)nn2)O[C@H]1CO)c1cccc(F)c1`, which AC50 is on record?
**A.** 19.1 µM

**Q.** For `c1ccc(-c2nnc(SCc3nc4ccccc4[nH]3)n2Cc2ccco2)nc1`, which AC50 is on record?
**A.** 19.8 µM

**Q.** For `Oc1c(C(c2ccccc2Cl)N2CCCC2)ccc2cccnc12` (configuration not stated), which AC50 is on record?
**A.** 1.85 µM

**Q.** With `CNCc1cn2cc(Cl)ccc2n1` as the compound, how does the AC50 read?
**A.** 21 µM

**Q.** How did the AC50 turn out when `COc1ccc2nc(-c3ccccn3)[nH]c2c1` was run?
**A.** 29 µM

**Q.** With `Cn1c(-c2ccc(Cl)cc2)cnc1N` as the compound, how does the AC50 read?
**A.** 20.5 µM

**Q.** `c1ccc(CCNc2nc(-c3ccccn3)nc3ccccc23)cc1` was tested. Which AC50 did it give?
**A.** 20.1 µM

**Q.** Which AC50 does the source give for `COc1c(O)cccc1/C=N/NC(=O)Cn1ccnc1C` here?
**A.** 8.02 µM

**Q.** Which AC50 does the source give for `Cc1ccsc1C(=O)Nc1nnc(-c2ccco2)o1` here?
**A.** 9.04 µM

**Q.** Which AC50 does the source give for `O=C(c1ccco1)[C@@H]1[C@@H]2C(=O)N(c3ccccc3)C(=O)[C@@H]2C2c3ccccc3C=CN21` (some centres not stated) here?
**A.** 45.9 µM

**Q.** How did the AC50 turn out when `Cc1ccccc1Nc1nnc(SCC(=O)NC(=O)NCc2ccco2)s1` was run?
**A.** 71.2 µM

**Q.** How did the AC50 turn out when `Cc1ccnc2nc(C(=O)Nc3nc(-c4ccccn4)cs3)nn12` was run?
**A.** 2.53 µM

**Q.** Which AC50 does the source give for `COc1ccccc1-c1nnc(NC(=O)c2cccc(N3C(=O)CCC3=O)c2)o1` here?
**A.** 29 µM

**Q.** `CCNC(=O)C(=O)N/N=C/c1cc([N+](=O)[O-])ccc1O` was tested. Which AC50 did it give?
**A.** 2.62 µM

**Q.** How did the AC50 turn out when `Cn1nc(-c2ccccn2)nc2c(=O)n(C)c(=O)nc1-2` was run?
**A.** < 0.5 µM

**Q.** `COc1cc(CCNc2ccc3nnc(-c4ccccc4)n3n2)cc(OC)c1OC` was tested. Which AC50 did it give?
**A.** 10.6 µM

**Q.** How did the AC50 turn out when `O=C(CSc1ccc2nnc(-c3ccccn3)n2n1)NCC1CCCO1` (configuration not stated) was run?
**A.** 49.7 µM

**Q.** With `CC(C)COCc1ccc(O)c2ncccc12` as the compound, how does the AC50 read?
**A.** 3.53 µM

**Q.** `Cc1c(NC(=O)CSc2cccc3cccnc23)c(=O)n(-c2ccccc2)n1C` was tested. Which AC50 did it give?
**A.** 3.6 µM

**Q.** `COc1ccc(CCNC(=O)CSc2nnc(Cc3csc(N)n3)n2C)cc1OC` was tested. Which AC50 did it give?
**A.** 61 µM

**Q.** With `Cc1cccc(C)c1Nc1c(-c2ccccn2)nc2ccccn12` as the compound, how does the AC50 read?
**A.** 8.6 µM

**Q.** For `O=c1[nH]c(O)c(N=Nc2cc([N+](=O)[O-])ccc2O)c(=O)[nH]1`, which AC50 is on record?
**A.** 25.5 µM

**Q.** With `O=S1(=O)N=C(N/N=C/c2ccccn2)c2ccccc21` as the compound, how does the AC50 read?
**A.** 4.02 µM

**Q.** `O=C(N[C@H]1CC[C@H](CCn2cc(-c3ccccn3)nn2)O[C@@H]1CO)c1cccnc1` was tested. Which AC50 did it give?
**A.** 9.74 µM

**Q.** How did the AC50 turn out when `CC(=O)NC(C)c1cc(Cl)c2cccnc2c1O` (configuration not stated) was run?
**A.** 6.14 µM

**Q.** With `O=C(CN1C(=O)/C(=C\c2cccs2)SC1=S)Nc1cccc(C(=O)O)c1` as the compound, how does the AC50 read?
**A.** 26.3 µM

**Q.** `c1ccc(-c2cnc(-c3ccccn3)nn2)cc1` was tested. Which AC50 did it give?
**A.** 3.23 µM

**Q.** With `c1ccc(-c2cccc(CNc3nc(-c4ccccn4)nnc3-c3ccccc3)c2)cc1` as the compound, how does the AC50 read?
**A.** 2.28 µM

**Q.** Which AC50 does the source give for `CC(Oc1ccc(F)cc1)C(=O)Nc1nc(-c2ccccn2)cs1` (configuration not stated) here?
**A.** 8.7 µM
